Experimental findings from ChEMBL document CHEMBL3988442, “University of Dundee, Small-Polar-MMV Screening Library” (2021) are described below.

A short description of assay [1]: microbe, parasite or virus in culture. To be noted: Mycobacterium tuberculosis, 96 h, read-out: pIC50 (converted).
Assay [2] can be described thus: microbe, parasite or virus in culture. As to conditions: Mycobacterium tuberculosis, 72 h, read-out: pIC50 (converted).

SMILES strings stand for the structures.

For `CCOC1COC2(CCN(Cc3ccc4c(c3)OCO4)CC2)C1` (stereo not given), the IC50 in assay [1] and in assay [2] was greater than 50.1 µM each time.

Turning to `CC(C)Nc1nc(N2CCCC2)nc2c1CN(C(C)C)CC2`, the IC50 in assay [1] is 15.8 µM; in assay [2], 26.5 µM.

As for `CC1CCN(C(=O)C(C)Oc2ccc3c(c2)OCO3)CC1` (stereo not given), the IC50 in assay [1] was 38.9 µM; in assay [2], 30.1 µM.

Regarding `Cn1nnc(NCc2ccc(-c3ccc(Cl)cc3)o2)n1`, the IC50 in assay [1] is 8.3 µM; in assay [2], 42.2 µM.

For `Cn1nnc(NCc2ccc(-c3ccc(Br)cc3)o2)n1`, the IC50 is 11.9 µM in assay [1] and 25.3 µM in assay [2].

For `CCn1nnc(NCc2ccc(-c3ccc(Br)cc3)o2)n1`, the IC50 in assay [1] is 14.1 µM; in assay [2], 44.3 µM.

For the molecule `O=c1c2cc3c(cc2nnn1Cc1ccccc1Cl)OCCO3`, the IC50 in assay [1] and in assay [2] was greater than 50.1 µM throughout.

For the molecule `Fc1cccc(Cl)c1CNCCOc1ccccn1`, the IC50 in assay [1] and in assay [2] was greater than 50.1 µM each time.

`CCCNC(=O)c1cc(C(C)C)nc(N2CCCC2)n1`: the IC50 in assay [1] is 41.7 µM; in assay [2], 11.5 µM.

For `CC(C)c1cc(C(=O)NCCCN(C)C)nc(N2CCCC2)n1`, the IC50 is 31.2 µM in assay [1] and 30 µM in assay [2].

With `CCN(CC)C(=O)CN1CCC2(C=Cc3cc(Cl)c(C)cc3O2)CC1`, the IC50 in assay [1] is greater than 50.1 µM; in assay [2] it was 31.4 µM.

Take `Fc1ccccc1CN1CCC[C@H](Cn2nnc(-c3cccs3)n2)C1`: the IC50 in assay [1] was 26.3 µM; in assay [2] it was 12.9 µM.

Consider `CC1(c2ncc(CN3CCN(c4ncccn4)CC3)cn2)CCCCO1` (stereo not given), for which the IC50 in assay [1] and in assay [2] was greater than 50.1 µM each time.

For `CCOc1cc([C@H]2N[C@@H](c3nc(C)cs3)Cc3ccsc32)ccc1OC`, the IC50 was greater than 50.1 µM in assay [1] and 12.8 µM in assay [2].

On to `Clc1ccc(OCCc2cc(C3CCN(c4ncccn4)C3)n[nH]2)cc1` (stereo not given), for which the figures for the IC50 in assay [1] and in assay [2] were 26.1 µM and 40 µM, respectively.

Turning to `CNC(=O)C1CN(C(=O)c2cccs2)CCN(S(C)(=O)=O)C1` (stereo not given), the IC50 in assay [1] and in assay [2] was greater than 50.1 µM throughout.

On to `COc1cc(CCC(=O)N2CCC(c3cc4nccnc4[nH]3)CC2)on1`, for which the IC50 in assay [1] was greater than 50.1 µM; in assay [2], 30.7 µM.

For the molecule `Nc1cc(-c2c[nH]nc2C2CCCCN2C(=O)C2CCCC2)ccn1` (stereo not given), the IC50 in assay [1] and in assay [2] was greater than 50.1 µM in each case.

Consider `CC(C)N1CC(C(=O)NCc2ccc(S(=O)(=O)N(C)C)cc2)CC1=O` (stereo not given), for which the IC50 in assay [1] and in assay [2] was greater than 50.1 µM in each case.

On to `CN(CC1(C)COC1)C(=O)c1cc(-c2cnn(C)c2)nc2ccccc12`, for which the IC50 in assay [1] and in assay [2] was greater than 50.1 µM each time.

As for `CCc1ccccc1NC(=O)NCc1nnc(SC)n1C`, the IC50 in assay [1] and in assay [2] was greater than 50.1 µM each time.

With `O=C(c1cnc(C2CC2)nc1)N1CCCC(c2nccs2)C1` (stereo not given), the figures for the IC50 in assay [1] and in assay [2] were 6.43 µM and 8.4 µM, respectively.

`CN(C)c1cc(C2CCCN(C(=O)c3noc4c3CCCC4)C2)ccn1` (stereo not given): the IC50 was 35.7 µM in assay [1] and 40 µM in assay [2].

For `NC(=O)C1(c2cnccn2)CCCN1C(=O)Cc1ccsc1` (stereo not given), the IC50 in assay [1] and in assay [2] was greater than 50.1 µM each time.

`O=C1NC2(CCCN(C(=O)CCn3cccn3)C2)Oc2ccccc21` (stereo not given): the IC50 in assay [1] was greater than 50.1 µM; in assay [2], 39.4 µM.

As to `CC(C)n1nnc(CC(=O)NCC2(c3cccc(F)c3)CCCC2)n1`, the IC50 in assay [1] and in assay [2] was greater than 50.1 µM throughout.

Take `c1ccc(Cc2cccc(C3CCCN3C3CCOCC3)n2)cc1` (stereo not given): the IC50 in assay [1] was greater than 50.1 µM; in assay [2], 13.2 µM.

Turning to `Cc1cccc(C2(O)CCN(Cc3ccccc3N3CCCC3)CC2)c1`, the results for the IC50 in assay [1] and in assay [2] were 20.7 µM and 12.1 µM, respectively.

For the molecule `CN1CCCC(c2cccc(-c3cccc(C(F)(F)F)c3)n2)C1` (stereo not given), the results for the IC50 in assay [1] and in assay [2] were 3.45 µM and 2.88 µM, respectively.

For the molecule `O=C(NC[C@H]1CC[C@H](c2ccnc3ncnn32)CC1)C1CC1`, the IC50 in assay [1] and in assay [2] was greater than 50.1 µM each time.

`O=C(NCC1(O)COCCN(Cc2cccc(O)c2)C1)c1cscn1` (stereo not given): the IC50 in assay [1] and in assay [2] was greater than 50.1 µM in each case.

For `Cc1cc(CN2CCc3nc(C(C)C)nc(O)c3CC2)c(C)s1`, the IC50 in assay [1] and in assay [2] was greater than 50.1 µM throughout.

As for `Cc1noc(-c2c[nH]nc2C2CCCN2C(=O)c2ccccc2)c1C` (stereo not given), the IC50 in assay [1] and in assay [2] was greater than 50.1 µM throughout.

Regarding `O=C(CCC1CCCC1)N1CCC(c2cc3ncccc3c(O)n2)CC1`, the IC50 in assay [1] was 0.855 µM; in assay [2] it was greater than 50.1 µM.

For `Cn1cncc1CN1CCCC1c1cncc(Oc2ccc(F)cc2)n1` (stereo not given), the IC50 in assay [1] is greater than 50.1 µM; in assay [2], 19.4 µM.

As to `O=C(c1ccno1)N1CCCC(c2ncncc2-c2ccncc2)C1` (stereo not given), the IC50 in assay [1] and in assay [2] was greater than 50.1 µM each time.

As to `NCCn1nc(C2CCN(Cc3ccccc3Cl)C2)c2nccnc21` (stereo not given), the IC50 in assay [1] and in assay [2] was greater than 50.1 µM each time.

In the case of `Cc1nc(Nc2ncccn2)cc(C2CN(C(=O)c3cccnc3)C2)n1`, the IC50 in assay [1] and in assay [2] was greater than 50.1 µM each time.

As to `c1cncc(CN2CCCC(c3nnc(-c4cnccn4)o3)C2)c1` (stereo not given), the IC50 in assay [1] and in assay [2] was greater than 50.1 µM in each case.

Take `COc1ccc(CNc2ncc(-c3cc(C)no3)c(C(C)C)n2)cc1`: the IC50 in assay [1] and in assay [2] was greater than 50.1 µM throughout.

As for `CC(=O)NCC(=O)N1C[C@@H]2CC[C@H](Oc3ccccc3Cl)[C@@H]2C1`, the IC50 in assay [1] and in assay [2] was greater than 50.1 µM throughout.

As for `Cc1cc(C)nc(N2CCCC(c3cccc(-n4ccnc4)n3)C2)n1` (stereo not given), the IC50 in assay [1] was 28.7 µM; in assay [2], 26.9 µM.

As for `CC(=O)N1CCCC(c2cnc(-c3c(C)nn(C)c3C)cn2)C1` (stereo not given), the IC50 in assay [1] and in assay [2] was greater than 50.1 µM throughout.

For the molecule `CN1CCC(Cc2cc(Nc3ncccn3)ncn2)CC1`, the IC50 in assay [1] and in assay [2] was greater than 50.1 µM each time.

As for `CC(=O)N1CCCC1c1cccc(Cc2ccccc2F)n1` (stereo not given), the IC50 is 39 µM in assay [1] and 29.2 µM in assay [2].

Regarding `NC(=O)NC(=O)CCN(Cc1ccccc1)CC1CCOCC1`, the IC50 in assay [1] was 35.7 µM; in assay [2] it was 28.7 µM.

On to `N#Cc1cc(Cl)ccc1N1CCN(C(=O)C2CCC2)CC1`, for which the IC50 in assay [1] and in assay [2] was greater than 50.1 µM each time.

As for `CN(C)S(=O)(=O)c1ccc(CN2CCC(C(N)=O)CC2)o1`, the IC50 in assay [1] and in assay [2] was greater than 50.1 µM throughout.

With `Cc1n[nH]cc1CNCC(c1ccsc1)N(C)C` (stereo not given), the IC50 in assay [1] and in assay [2] was greater than 50.1 µM throughout.

`NC(=O)C1CCN(Cc2ccc(S(=O)(=O)N3CCCC3)o2)CC1`: the IC50 in assay [1] and in assay [2] was greater than 50.1 µM throughout.

`COCCC1(CNC(=O)NCC2CCCS2)CCCC1` (stereo not given): the IC50 in assay [1] and in assay [2] was greater than 50.1 µM throughout.

`COC(=O)c1ccc(C(=O)NCc2ccc(Br)cc2)cn1`: the IC50 was 25.6 µM in assay [1] and 24.8 µM in assay [2].

`CN(Cc1cnn(C)c1)C(=O)c1ccc(=O)n(C)n1`: the IC50 in assay [1] and in assay [2] was greater than 50.1 µM each time.

As for `CCn1nnc2c1C(COCC(=O)N(C)C)CN(Cc1ccoc1)C2` (stereo not given), the IC50 in assay [1] and in assay [2] was greater than 50.1 µM throughout.

`Cn1cccc1C(=O)N1CCN2C[C@H](Oc3cccnc3)C[C@H]2C1`: the IC50 in assay [1] and in assay [2] was greater than 50.1 µM throughout.

For `Cc1nn(C)cc1S(=O)(=O)NCC(c1ccccc1)N1CCCCCC1` (stereo not given), the IC50 in assay [1] and in assay [2] was greater than 50.1 µM throughout.

With `COc1cc2c(cc1CNC(Cc1cccs1)c1nccs1)OCO2` (stereo not given), the IC50 in assay [1] is 17.3 µM; in assay [2] it was greater than 50.1 µM.

`Cc1cc2c(cc1CNC(Cc1cccs1)c1nccs1)OCO2` (stereo not given): the values for the IC50 in assay [1] and in assay [2] were greater than 50.1 µM and 24.4 µM, respectively.

Regarding `FC(F)(F)c1ccc(-c2cnc(C3CCCN3)cn2)cc1` (stereo not given), the IC50 in assay [1] is 2.02 µM; in assay [2] it was 13.9 µM.

For `O=c1c2sccc2nc2n1CCN(Cc1ccc(F)c(F)c1)CC2`, the IC50 in assay [1] was 4.05 µM; in assay [2], greater than 50.1 µM.

Regarding `CCOc1ccc(CN2CCc3nc4ccsc4c(=O)n3CC2)cc1`, the IC50 in assay [1] was 16.3 µM; in assay [2], 37.8 µM.

Turning to `O=c1c2sccc2nc2n1CCN(Cc1ccccc1C(F)(F)F)CC2`, the IC50 in assay [1] and in assay [2] was greater than 50.1 µM each time.

For the molecule `O=c1c2sccc2nc2n1CCN(Cc1cc(F)ccc1F)CC2`, the IC50 was greater than 50.1 µM in assay [1] and 25 µM in assay [2].

Regarding `Clc1ccccc1CN1CCc2nc(C3CCNCC3)ncc2C1`, the IC50 in assay [1] is greater than 50.1 µM; in assay [2] it was 4.89 µM.

`Cn1nc(C2CCCN(Cc3cc(F)ccc3F)C2)c2nccnc21` (stereo not given): the IC50 in assay [1] and in assay [2] was greater than 50.1 µM throughout.

`O=C(c1cccnc1)N1CCC2(CC1)CNc1c(F)cccc12`: the IC50 in assay [1] and in assay [2] was greater than 50.1 µM throughout.

`Cc1nc(N2CCCC2)nc2c1CCN(Cc1ccco1)CC2`: the IC50 in assay [1] was 4.23 µM; in assay [2] it was 4.72 µM.

As to `CCN1CC2(CC1=O)CN(Cc1cnn(C)c1)CCN(C(=O)C(C)C)C2` (stereo not given), the IC50 in assay [1] and in assay [2] was greater than 50.1 µM throughout.

For the molecule `CS(=O)(=O)NC[C@H]1OC[C@@H]2CCN(CCc3ccccc3)C[C@@H]21`, the IC50 in assay [1] and in assay [2] was greater than 50.1 µM in each case.

As to `c1cnc(N2CC[C@@H](OCC3CC3)[C@@H]2Cc2cccnc2)nc1`, the IC50 in assay [1] and in assay [2] was greater than 50.1 µM throughout.

For `O=C(Nc1cccnc1)[C@H]1COC[C@H]2CN(C3CCCC3)C[C@H]21`, the IC50 in assay [1] and in assay [2] was greater than 50.1 µM throughout.

For the molecule `O=C1N(Cc2cccnc2)CCC12CCCN(c1ncccn1)C2` (stereo not given), the IC50 in assay [1] and in assay [2] was greater than 50.1 µM throughout.

`CCc1ncc(CN(CCc2ccccc2)Cc2cccs2)cn1`: the IC50 in assay [1] is 9.25 µM; in assay [2] it was 19.7 µM.

In the case of `Cc1cc(C[C@@H]2COC[C@H]2NCc2ccc(C(C)C)cc2)on1`, the IC50 in assay [1] was 11.5 µM; in assay [2] it was 34.6 µM.

On to `CCc1ccc(CN(CCCn2ccnc2)Cc2ccc(C)s2)o1`, for which the values for the IC50 in assay [1] and in assay [2] were 36.8 µM and 37.5 µM, respectively.
